# System: animal models
# Assay: animal models, oral dosing (earlier studies)
# Assay type: in vivo
# Conditions: oral dose of 25 mg/Kg, previous studies
# Source text: For example, the mildly painful stimuli from scratching are effective in abolishing the itch sensation. In contrast, analgesics such as opioids can generate severe pruritis. The antagonistic interaction between pain and itch can be exploited in pruritis therapy, and current research concentrates on the identification of common targets for future analgesic and antipruritis therapy. […] Accordingly, COMPOUND A, as an enantiomer or a pharmaceutically acceptable salt thereof, can also be useful for treating pruritis.
# Following paw withdrawal baseline measurements, animals were randomly divided into 4 different test groups (N=8 animals/group), including a vehicle control group for oral dosage, a vehicle control group for topical dosage, and two treatment groups. For the oral dosage groups, animals were dosed by oral gavages after baseline measurement. […] For the topical dosage groups, 50 mg of the test composition was applied on the ipsilateral ankle and foot. […] Von Frey withdrawal thresholds were measured as the mean of several independent determinations made within 1-2 minutes of each other on the affected paw of each animal. Withdrawal measurements were taken 60 minutes post dosing for the oral dosage group and 30 minutes post-dosing for the topical dosage group, representing their respective peak efficacy time points as determined in previous studies.
structure (smiles),measurement,value
"O=C1N(Cc2ccc(C(F)(F)F)o2)c2ccccc2[C@]12COc1cc3c(cc12)OCO3 [COMPOUND A, (S)-1′-{[5-(trifluoromethyl)furan-2-yl]methyl}spiro[furo[2,3-f][1,3]benzodioxole-7,3′-indol]-2′(1′H)-one]",reversal of pain response,approximately half-maximal reversal of pain response
